Laboratory results reported in US20240189287A1, “PERIPHERALLY RESTRICTED CB1 RECEPTOR BLOCKERS AND USES THEREOF” (BIONANOSIM (BNS) LTD, priority 2021, published 2024).
Where two headings read alike, the source gives them in different places.

How the values were obtained:
C57Bl/6J mice [1] = assay: CNS-mediated hyperactivity, locomotor activity (Promethion); assay type: in vivo; details: wild-type male C57Bl/6J mice
Text: (§1) Locomotor activity: Locomotor activity was quantified by the number of disruptions of infrared XYZ beam arrays with a beam spacing of 0.25 cm in the Promethion High-Definition Behavioral Phenotyping System (Sable Instruments, Inc., Las Vegas, NV, USA).
(§2) The ability of BNS822 and BNS808 to induce CNS-mediated hyperactivity was further evaluated in a mouse model, using rimonabant (a brain penetrant CB1 receptor blocker) as a positive control. Mice (wild-type male C57Bl/6J) received a single dose of rimonabant (10 mg/kg IP), BNS822 (20 mg/kg PO) BNS 808 (1, 10 mg/kg PO) or vehicle; ambulatory activity was measured by the Promethion Metabolic System (Sable Instruments, Inc). In the same experimental scheme, BNS822, BNS808 and rimonabant were further studied regarding the potential to inhibit the hypomotility-induced by a CB1 receptor agonist, HU210, after a single dose of rimonabant (10 mg/kg IP), BNS822 (20 mg/kg PO) BNS808 (1, 10 mg/kg PO) or vehicle and a single dose of HU210 (30 μg/kg IP) 30 min after.

CYP 1A2 = CYP 1A2 (Homo sapiens (Human), UniProt P05177); assay: CYP inhibition in human liver microsomes; assay type: in vitro ADME
Sequence of CYP 1A2 (P05177 whole entry): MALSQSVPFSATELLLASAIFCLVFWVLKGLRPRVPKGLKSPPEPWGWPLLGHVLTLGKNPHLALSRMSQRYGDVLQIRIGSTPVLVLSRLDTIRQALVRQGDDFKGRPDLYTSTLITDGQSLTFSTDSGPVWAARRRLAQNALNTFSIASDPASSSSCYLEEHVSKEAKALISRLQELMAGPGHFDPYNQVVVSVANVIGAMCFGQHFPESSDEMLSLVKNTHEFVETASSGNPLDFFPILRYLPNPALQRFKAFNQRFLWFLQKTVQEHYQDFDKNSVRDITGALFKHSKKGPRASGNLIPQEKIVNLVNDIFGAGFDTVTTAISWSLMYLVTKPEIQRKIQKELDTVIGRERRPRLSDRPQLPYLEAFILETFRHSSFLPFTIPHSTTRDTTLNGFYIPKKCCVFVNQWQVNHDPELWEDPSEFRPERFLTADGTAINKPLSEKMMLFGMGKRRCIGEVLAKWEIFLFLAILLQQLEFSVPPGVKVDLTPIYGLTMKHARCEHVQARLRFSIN
Method: (§3) To evaluate the in vitro CYP inhibition of BNS808 and BNS822, the compounds were tested in human liver microsomes that are rich in drug metabolizing enzymes, including CYPs 1A2, 2C9, 2C19, 2D6, 3A4.

CYP3A4 = CYP3A4 (Homo sapiens (Human), UniProt P08684); assay: CYP inhibition in human liver microsomes; assay type: in vitro ADME; details: for IC50: fifth value column, read-out: IC50 (μM) CYP 3A4
Sequence of CYP3A4 (P08684 whole entry): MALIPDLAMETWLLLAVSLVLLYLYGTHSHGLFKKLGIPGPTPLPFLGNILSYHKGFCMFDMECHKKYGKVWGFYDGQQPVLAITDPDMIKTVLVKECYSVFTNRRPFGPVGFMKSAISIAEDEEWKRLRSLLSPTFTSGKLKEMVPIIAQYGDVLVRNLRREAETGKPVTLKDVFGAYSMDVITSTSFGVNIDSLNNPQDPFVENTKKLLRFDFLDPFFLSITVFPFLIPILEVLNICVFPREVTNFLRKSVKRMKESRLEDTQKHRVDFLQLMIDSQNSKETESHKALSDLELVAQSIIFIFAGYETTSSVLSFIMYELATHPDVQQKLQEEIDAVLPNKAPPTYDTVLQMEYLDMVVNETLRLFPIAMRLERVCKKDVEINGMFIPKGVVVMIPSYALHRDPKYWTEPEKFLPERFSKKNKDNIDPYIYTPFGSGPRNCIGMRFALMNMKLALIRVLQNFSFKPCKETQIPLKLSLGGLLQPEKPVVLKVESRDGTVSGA
Method: as §3

MDR1-MDCKII cells = assay: MDR1-MDCK II cell permeation assay (bi-directional permeability, P-gp efflux); assay type: in vitro ADME
Method: (§4) Test and reference compounds were diluted with transport buffer (HBSS with 10 mM Hepes, pH 7.4) from stock solution to a concentration of 2 μM (DMSO<1%) and applied to the apical or basolateral side of the cell monolayer. Permeation of the test compounds from A to B direction or B to A direction was determined in duplicate with/without P-gp inhibitor (GF120918, 10 μM). […] The plate was incubated for 2.5 hours in CO2 incubator at 37±1° C., with 5% CO2 at saturated humidity without shaking. In addition, the efflux ratio of each compound was also determined. Test and reference compounds were quantified by LC-MS/MS analysis based on the peak area ratio of analyte/IS.
(§5) The in vitro bi-directional permeability across MDR1-MDCKII cells including P-glycoprotein (Pgp, ABCB1) efflux in the presence and absence of a P-gp inhibitor is an indicator as to the tendency of an orally administered compound to penetrate the brain.

P-gp (MDR1, ABCB1) = assay: as above; assay type: in vitro ADME; details: dog, MDCK-MDR1, pH 7.4
Method: as §4, §5

C57Bl/6J mice [2] = assay: Inhibition of HU210-induced hypomotility; assay type: in vivo; details: HU210 30 μg/kg IP 30 min after
Text: as §1, §2

CB1 receptor = CB1 receptor (Mus musculus (Mouse), UniProt P47746); assay: [35S]GTPγS binding assay for CB1 receptor, mouse brain membranes; assay type: biochemical; details: nature of binding: agonist/antagonist/inverse agonist
Sequence of CB1 receptor (P47746 whole entry): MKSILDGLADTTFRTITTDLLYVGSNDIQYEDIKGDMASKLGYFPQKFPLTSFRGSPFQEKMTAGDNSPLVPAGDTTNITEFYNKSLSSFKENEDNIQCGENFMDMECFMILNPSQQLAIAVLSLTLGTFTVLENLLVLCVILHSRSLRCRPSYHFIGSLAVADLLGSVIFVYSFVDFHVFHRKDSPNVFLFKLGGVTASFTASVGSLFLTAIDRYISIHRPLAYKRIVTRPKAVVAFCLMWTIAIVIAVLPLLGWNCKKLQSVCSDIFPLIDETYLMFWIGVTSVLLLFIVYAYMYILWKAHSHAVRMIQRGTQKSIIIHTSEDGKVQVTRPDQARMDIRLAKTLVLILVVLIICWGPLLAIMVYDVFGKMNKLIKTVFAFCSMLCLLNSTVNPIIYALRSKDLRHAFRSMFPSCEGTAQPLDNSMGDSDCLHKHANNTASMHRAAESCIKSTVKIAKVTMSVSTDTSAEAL
Method: For CB1 receptor-mouse brains were dissected and P2 membranes prepared and resuspended at ˜2 μg protein/μL in 1 ml assay buffer (50 mM Tris HCl, 9 mM MgCl2, 0.2 mM EDTA, 150 mM NaCl; pH 7.4). Ligand-stimulated [^35S]GTPγS binding was assayed as described previously (Tam et al., JCI 2010). Briefly, membranes (10 μg protein) were incubated in assay buffer containing 100 μM GDP, 0.05 nM [^35S]GTPγS, test compounds at various concentrations (CP55940/Rimonabant as controls and test compounds for BB8 conjugates), and 1.4 mg/mL fatty acid-free BSA in siliconized glass tubes. Membranes with bound ligand ([^35S]GTPγS) were separated from free ligand by vacuum filtration and were analyzed using β counter as described above. Non-specific binding was determined using 10 μM GTPS (cold GTP). Basal binding was assayed in the absence of the tested compound and in the presence of GDP.

CB2 receptor = CB2 receptor (Homo sapiens (Human), UniProt P34972); assay: CB2 receptor radioligand binding assay, [3H]CP-55,940 displacement, human kidney membranes
Sequence of CB2 receptor (P34972 whole entry): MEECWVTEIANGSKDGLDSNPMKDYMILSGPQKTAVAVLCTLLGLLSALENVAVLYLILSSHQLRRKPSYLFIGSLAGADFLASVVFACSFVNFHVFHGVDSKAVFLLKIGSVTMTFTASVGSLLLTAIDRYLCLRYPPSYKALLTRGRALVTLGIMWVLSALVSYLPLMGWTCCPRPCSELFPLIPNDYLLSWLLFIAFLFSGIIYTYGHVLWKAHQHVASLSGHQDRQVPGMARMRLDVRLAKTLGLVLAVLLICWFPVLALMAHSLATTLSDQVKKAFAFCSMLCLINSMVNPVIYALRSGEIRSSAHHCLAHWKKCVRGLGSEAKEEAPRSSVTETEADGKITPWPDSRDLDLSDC
Method: Radioligand binding assays: Binding affinity was determined by a radioligand binding assay. The different BB8-conjugates binding to CB1 and CB2 receptors was assessed in competition displacement assays using [^3H]CP-55.940 as the radioligand and crude membranes from mouse brain for CB1 receptor and human kidney cells for CB2 receptor.
CB2 receptor binding assay: Human kidney membranes were used as the source material for CB2 receptors. The displacement of specifically bound tritiated CP-55,940 from these membranes using a standard filtration assay was used to determine the Ki values for the test compounds. Briefly, 1.25 μg of protein was incubated for 1.5 h at 30° C. in the presence of 0.5 nM [^3H]CP-55,940 and various concentrations (10^−5M-10^−11M) of test compound/control, final volume of 1 mL. The incubation was terminated by rapid filtration and washing, and the amount of specifically bound [^3H]CP-55,940 was determined. Briefly, membranes with bound [^3H]CP-55,940 were separated and washed from free ligand by vacuum filtration, adsorbing the membrane onto a Whatman glass microfiber filter paper ([…], Cat #1821271). Finally, the Whatman filter paper with adsorbed membranes was cut and placed in scintillation liquid (Ultima Gold) for 1 h at 25° C. followed by a β counter reading of bound [^3H]CP-55,940 radioligand. All data were in triplicates with Ki values determined using GraphPad Prism 7.02 analysis software.

| Compound | locomotor activity (CNS-mediated hyperactivity) (C57Bl/6J mice [1]; single dose 1, 10 mg/kg PO) | IC50 (CYP 1A2) [µM] | inhibitor grade, CYP3A4(M) (CYP3A4) | IC50 (CYP3A4) [µM] | Rank Papp (MDR1-MDCKII cells; MDCK-MDR1) | MDR1 B:A/A:B (MDR1-MDCKII cells; efflux ratio, without P-gp inhibitor) | efflux ratio at 2.5 h, 2 μM (P-gp (MDR1, ABCB1); efflux ratio in the presence of P-gp inhibitor GF120918, read-out: MDR1 B:A/A:B (+P-gp inhibitor)) | effect on HU210-induced hypomotility (C57Bl/6J mice [2]; single dose 1, 10 mg/kg PO) | locomotor activity (CNS-mediated hyperactivity) (C57Bl/6J mice [1]; single dose 20 mg/kg PO) | IC50 (CYP 1A2; human liver microsomes, isozyme order of b227, read-out: IC50 (μM) CYP 1A2) [µM] | mCB1R GTPγ[^35S] (activity) (CB1 receptor) | P-gp substrate (MDR1-MDCKII cells) | Rank Papp (MDR1-MDCKII cells) | Papp at 2.5 h, 2 μM (P-gp (MDR1, ABCB1); 2 μM, A to B, 2.5 hours) [×10⁻⁶ cm/s] | efflux ratio at 2.5 h, 2 μM (P-gp (MDR1, ABCB1); efflux ratio, without P-gp inhibitor, read-out: MDR1 B:A/A:B) | hCB2R Ki (nM) (CB2 receptor) | effect on HU210-induced hypomotility (C57Bl/6J mice [2]; single dose 20 mg/kg PO) |
| --- | --- | --- | --- | --- | --- | --- | --- | --- | --- | --- | --- | --- | --- | --- | --- | --- | --- |
| O=S(=O)(NC1CCCOc2c1nn(-c1ccccc1Cl)c2-c1ccc(Cl)cc1)c1ccc(Cl)cc1 (stereo not drawn) [BNS808, 4-chloro-N-[2-(2-chlorophenyl)-3-(4-chlorophenyl)-5,6,7,8-tetrahydrooxepino[3,2-c]pyrazol-8-yl]benzenesulfonamide] | no locomotor effects | > 50 | moderate inhibitor | 2.99 | Low | 3.95 | 1.88 | apparent lack of effects |  |  |  |  |  |  |  |  |  |
| Cc1ccc(C)c(OCCCC(C)(C)C(=O)NC2CCCOc3c2nn(-c2ccccc2Cl)c3-c2ccc(Cl)cc2)c1 (stereo not drawn) [BNS822, N-[2-(2-chlorophenyl)-3-(4-chlorophenyl)-5,6,7,8-tetrahydrooxepino[3,2-c]pyrazol-8-yl]-5-(2,5-dimethylphenoxy)-2,2-dimethyl-pentanamide] |  |  |  | > 50 |  |  |  |  | no locomotor effects | > 50 | Antagonist | P-gp substrates and Yes | Low | < 0.02 | > 3.62 | No binding | apparent lack of effects |
